Results on four molecules are retold here after patent US12467917B2, “Reconstructing human early embryogenesis in vitro with pluripotent stem cells” (California Institute of Technology, priority 2021, dated 2025).

Holding throughout (format): cell-based, human
For one assay, the system named is hEPSCs. The assay can be described thus: Screening of growth factors and inhibitors in hEPSC 3D culture. The conditions noted are these: grown for 5 days without the named substance (condition 2 / condition 3). Here is the method: Next, various growth factors, cytokines, and small molecules were screened at widely adopted concentrations, to identify conditions facilitating cavity and early-lineage formation in these structures (FIG. 7A-FIG. 7E). […] Additionally, the cells were pulsed with the ALK5 kinase inhibitor A83-01 (2 μM) to promote TE differentiation for the first 48h of 3D culture, and this inhibitor was removed after this time to avoid a complete loss in pluripotency. Concomitantly, the concentration of FGF2 was decreased by half (20 ng/ml) for the same purpose. Using this optimized condition, the emergence of cavitated structures was observed, 3 to 4 days after cell seeding (FIG. 1D).
Post incubation on gelatin plates, cells were counted using a haemocytometer and a total of 7200 hEPSCs was added to 1 mL of media composed of 50% IVF media (Continuous Single Culture-NX Complete (CSCM-NXC)) (90168, FUJIFILM), 25% hEP media, and 25% hTS media. This media was also supplemented with CHIR99021 (2 μM), Y27632 (5 μM), BMP4 (20 ng/mL), FGF2 (40 ng/mL), and A83-01 (2 μM). Cell suspensions were added dropwise to the Aggrewells. All wells without cells were filled with 1 mL PBS to humidify the local atmosphere to minimize evaporation. The AggreWell plate (24-well, 1200 Aggrewell format) was then centrifuged for 3 min at 100 g, and placed at 37° C. under hypoxic conditions (5% CO2 and 5% O2). […]

In the next assay the test system is hEPSC aggregates. Description: PLC inhibition in hEPSC 3D cultures: immunofluorescence quantification of nuclear GATA3 and apical PARD6. The conditions noted are these: hEPSC 3D cultures treated with 2 μM and 3 μM, vs control without inhibitor. How it is done: The PLC-Protein Kinase C (PKC) pathway controls cellular polarisation at early stages of mouse embryo development. hEPSC 3D cultures were treated with 2 μM and 3 μM of the PLC inhibitor, U73122. […] To confirm the relationship between polarisation and outer cell commitment, siRNA transfection was used to knockdown (KD) PLCB1 in order to deplete PLC activity in cells during 3D aggregation (FIG. 2F). The depletion of PLC activity was confirmed by qRT-PCR to confirm that RNAi depletion of PLCB1 was effective (FIG. 8C).
Post incubation on gelatin plates, cells were counted using a haemocytometer and a total of 7200 hEPSCs was added to 1 mL of media composed of 50% IVF media (Continuous Single Culture-NX Complete (CSCM-NXC)) (90168, FUJIFILM), 25% hEP media, and 25% hTS media. This media was also supplemented with CHIR99021 (2 μM), Y27632 (5 μM), BMP4 (20 ng/mL), FGF2 (40 ng/mL), and A83-01 (2 μM). […]
Fluorescence images were acquired with an inverted Leica SP8 confocal microscope (Leica Microsystems), using a Leica Fluotar VISIR 0.95 NA 25× objective. […] Digital quantifications and immunofluorescence signal intensity graphs were obtained using Fiji software.
Apical enrichment analysis: F-actin and PARD6 polarisation were measured in a single focal plane, by taking the middle plane of the aggregate. […] The apical/basal signal intensity ratio was calculated as: I (apical)/I (basal). […]

The test system of another assay is hEP-structures. Description: Frequency of cavitated structures in WNT3A-supplemented 3D culture. The conditions noted are these: day 6; WNT3A at 25 or 50 ng/mL added to culture media; vs control. How it is done: Post incubation on gelatin plates, cells were counted using a haemocytometer and a total of 7200 hEPSCs was added to 1 mL of media composed of 50% IVF media (Continuous Single Culture-NX Complete (CSCM-NXC)) (90168, FUJIFILM), 25% hEP media, and 25% hTS media. This media was also supplemented with CHIR99021 (2 μM), Y27632 (5 μM), BMP4 (20 ng/mL), FGF2 (40 ng/mL), and A83-01 (2 μM). Cell suspensions were added dropwise to the Aggrewells. All wells without cells were filled with 1 mL PBS to humidify the local atmosphere to minimize evaporation. The AggreWell plate (24-well, 1200 Aggrewell format) was then centrifuged for 3 min at 100 g, and placed at 37° C. under hypoxic conditions (5% CO2 and 5% O2). After 48h, media was removed from wells and replaced with fresh culture media as described above, although FGF2 concentration was lowered to 20 ng/ml and A83-01 was omitted. Cells were left to grow for an additional 48-72h until proper morphology was observed, at which point structures were fixed for immunostaining or transferred to IVC media (see below) for mimicking development beyond implantation stages.
Following completion of any given aggregation experiment (from day 4 to 6), all cystic structures clearly displaying a cavity were included in further analyses. Non-cavitated structures were excluded from downstream analyses.

Turning to `Cc1c[nH]c(-c2cnc(NCCNc3ccc(C#N)cn3)nc2-c2ccc(Cl)cc2Cl)n1` [CHIR99021], the “cell survival in media without the substance” value in the assay with hEPSCs is on record as “failure of cell survival”.

For the molecule `COc1ccc2c(c1)CC[C@@H]1[C@@H]2CC[C@]2(C)[C@@H](NCCCCCCN3C(=O)C=CC3=O)CC[C@@H]12` [U73122], the “nuclear GATA3 signal intensity” value in the assay with hEPSC aggregates (normalized to DAPI) was “reduction”. The “apical enrichment of PARD6” value in the assay on hEPSC aggregates is “decrease”.

`C[C@@H](N)[C@H]1CC[C@H](C(=O)Nc2ccncc2)CC1.Cl.Cl` [Y-27632, trans-4-[(R)-1-Aminoethyl]-N-4-pyridinylcyclohexanecarboxamide dihydrochloride]: the “cell survival in media without the substance” value with hEPSCs is recorded as “failure of cell survival”.

B1: WNT3A: Wnt3a recombinant protein, WNT signaling pathway activator added to the culture media (protein, UniProt P56704 19-352, looked up)
Protein Wnt-3a: SYPIWWSLAVGPQYSSLGSQPILCASIPGLVPKQLRFCRNYVEIMPSVAEGIKIGIQECQHQFRGRRWNCTTVHDSLAIFGPVLDKATRESAFVHAIASAGVAFAVTRSCAEGTAAICGCSSRHQGSPGKGWKWGGCSEDIEFGGMVSREFADARENRPDARSAMNRHNNEAGRQAIASHMHLKCKCHGLSGSCEVKTCWWSQPDFRAIGDFLKDKYDSASEMVVEKHRESRGWVETLRPRYTYFKVPTERDLVYYEASPNFCEPNPETGSFGTRDRTCNVSSHGIDGCDLLCCGRGHNARAERRREKCRCVFHWCCYVSCQECTRVYDVHTCK
For the molecule B1, in the assay on hEP-structures, the “yield (frequency) of cavitated structures” value was “did not make any significant difference”.
